The molecules below were run against T1, human acetyl-CoA carboxylase 2 (ACC2) (Homo sapiens, UniProt O00763) (assay: Acetyl-CoA carboxylase enzyme assay (malonyl-CoA formation by LC/MS/MS)). Conditions: recombinant human ACC2 (aa 144-2458); read-out: IC50 ACC2.
T1 construct: The cDNA encoding amino acids 144 to 2458 of human acetyl-CoA carboxylase 2; made in house; host or cells: Sf9 insect cells (baculovirus, pFastBac1)
T1 sequence (O00763 144-2458): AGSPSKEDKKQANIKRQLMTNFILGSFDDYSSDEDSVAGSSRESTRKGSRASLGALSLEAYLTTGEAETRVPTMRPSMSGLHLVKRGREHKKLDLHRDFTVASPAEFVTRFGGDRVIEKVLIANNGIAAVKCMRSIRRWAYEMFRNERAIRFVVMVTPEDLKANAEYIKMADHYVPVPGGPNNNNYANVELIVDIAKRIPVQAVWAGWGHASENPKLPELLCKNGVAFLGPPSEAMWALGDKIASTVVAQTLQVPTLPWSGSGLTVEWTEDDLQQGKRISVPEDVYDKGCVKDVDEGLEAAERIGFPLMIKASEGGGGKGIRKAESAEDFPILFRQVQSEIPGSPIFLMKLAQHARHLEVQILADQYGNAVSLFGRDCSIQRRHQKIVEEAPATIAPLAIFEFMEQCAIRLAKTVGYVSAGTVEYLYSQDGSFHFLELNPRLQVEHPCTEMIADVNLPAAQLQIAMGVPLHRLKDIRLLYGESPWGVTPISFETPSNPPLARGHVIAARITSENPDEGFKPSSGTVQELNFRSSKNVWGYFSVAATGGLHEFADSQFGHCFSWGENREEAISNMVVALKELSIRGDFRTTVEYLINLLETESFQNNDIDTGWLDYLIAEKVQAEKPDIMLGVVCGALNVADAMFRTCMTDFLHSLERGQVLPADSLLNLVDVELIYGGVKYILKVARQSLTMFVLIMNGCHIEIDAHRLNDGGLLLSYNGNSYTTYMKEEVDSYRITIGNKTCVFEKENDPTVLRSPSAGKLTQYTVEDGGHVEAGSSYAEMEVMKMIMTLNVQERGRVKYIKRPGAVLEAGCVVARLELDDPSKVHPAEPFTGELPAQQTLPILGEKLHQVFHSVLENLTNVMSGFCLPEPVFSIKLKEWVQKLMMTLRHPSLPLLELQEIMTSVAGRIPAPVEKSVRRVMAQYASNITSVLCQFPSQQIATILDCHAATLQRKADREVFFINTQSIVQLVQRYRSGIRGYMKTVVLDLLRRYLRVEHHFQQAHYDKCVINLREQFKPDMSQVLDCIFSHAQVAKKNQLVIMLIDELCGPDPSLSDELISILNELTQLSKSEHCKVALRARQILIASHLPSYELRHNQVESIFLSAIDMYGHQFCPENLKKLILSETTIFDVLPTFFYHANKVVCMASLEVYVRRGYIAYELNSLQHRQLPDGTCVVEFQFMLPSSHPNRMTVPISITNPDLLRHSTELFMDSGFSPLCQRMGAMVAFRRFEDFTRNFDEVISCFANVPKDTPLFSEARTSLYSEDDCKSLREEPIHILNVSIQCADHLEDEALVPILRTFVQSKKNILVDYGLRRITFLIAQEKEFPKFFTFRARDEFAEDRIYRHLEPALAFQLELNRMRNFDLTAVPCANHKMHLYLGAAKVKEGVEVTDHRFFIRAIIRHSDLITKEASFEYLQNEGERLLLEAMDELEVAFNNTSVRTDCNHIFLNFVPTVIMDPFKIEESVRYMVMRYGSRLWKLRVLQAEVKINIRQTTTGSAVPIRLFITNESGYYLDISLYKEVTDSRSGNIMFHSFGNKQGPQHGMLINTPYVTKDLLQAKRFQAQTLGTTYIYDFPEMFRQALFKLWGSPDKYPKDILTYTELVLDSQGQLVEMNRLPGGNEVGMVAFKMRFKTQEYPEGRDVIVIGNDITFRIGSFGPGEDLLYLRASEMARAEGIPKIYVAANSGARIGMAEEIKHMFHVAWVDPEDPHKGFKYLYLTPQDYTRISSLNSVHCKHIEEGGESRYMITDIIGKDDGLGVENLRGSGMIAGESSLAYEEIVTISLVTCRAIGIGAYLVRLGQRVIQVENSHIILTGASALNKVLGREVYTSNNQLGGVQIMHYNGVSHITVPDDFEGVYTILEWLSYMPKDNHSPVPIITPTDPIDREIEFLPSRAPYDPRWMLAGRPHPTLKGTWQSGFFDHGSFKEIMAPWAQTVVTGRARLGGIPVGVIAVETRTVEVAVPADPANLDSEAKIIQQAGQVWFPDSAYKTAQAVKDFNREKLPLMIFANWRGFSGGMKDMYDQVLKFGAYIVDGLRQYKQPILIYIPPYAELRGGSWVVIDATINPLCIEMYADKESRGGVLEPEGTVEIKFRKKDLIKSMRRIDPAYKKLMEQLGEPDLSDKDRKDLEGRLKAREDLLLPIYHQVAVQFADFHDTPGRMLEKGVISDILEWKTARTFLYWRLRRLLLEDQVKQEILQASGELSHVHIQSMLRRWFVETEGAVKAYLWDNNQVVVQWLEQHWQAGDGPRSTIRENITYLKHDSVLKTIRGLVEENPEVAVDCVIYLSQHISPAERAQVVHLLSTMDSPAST
Type: biochemical
From the text: The cDNA encoding amino acids 144 to 2458 of human acetyl-CoA carboxylase 2 (ACC2, GenBank Accession #NM_001093) was cloned into the SalI and NotI sites of pFastBac1 (Invitrogen; Carlsbad, Calif.). The resulting plasmid was used to generate a recombinant ACC2 baculovirus that was amplified and titered according to the protocols in the Bac-to-Bac baculovirus expression system manual (Invitrogen). The titered virus was used to infect Sf9 cells grown in Ex-Cell 420 serum-free medium (JRH Biosciences; Lenexa, Kans.). At 48 hours post-infection, the cells were harvested and stored at −80° C. until purification. ACC2 was purified using ammonium sulfate precipitation and anion exchange chromatography.
The enzymatic assay was run as follows: 30 μL of reaction buffer (100 mM HEPES pH 7.5, 20 mM MgCl2, 20 mM potassium citrate, 2 mM DTT) was added to a 384-well microtiter plate followed by 2 μL of the test compound (or 100% DMSO control). ACC2 protein (10 μL of a 50 nM working solution) was added to plate, which was incubated at room temperature for 15 minutes. A 30 μL addition of substrate solution (50 μM acetyl-CoA, 120 μM ATP, 2 mM KHCO3) was used to initiate the reactions which were quenched with 6% acetic acid (40 μL). ACC catalyzed malonyl-CoA formation was detected by LC/MS/MS using a Cohesive Technologies LX Series multiplex LC/MSIMS system configured with four binary pumps (Agilent Technologies; Palo Alto, Calif.), a dual arm autosampler (Leap Technologies; Cary, N.C.), and one Quattro Micro triple quadrupole mass spectrometer (Waters, Milford, Mass.), all run by Aria Software version 1.5 (Cohesive Technologies; Franklin, Mass.). Four samples were injected (20 μL) onto four Phenosphere NEXT C18 30×2 mm 5 μm columns (Phenomenex; Torrance, Calif.), eluted by four separate pumps, running identical gradients, through a column switching manifold with the one outlet fitted to the electrospray (ESI) source. Malonyl-CoA was eluted with 5 mM ammonium acetate, pH 4.5 (Buffer A) and 100% acetonitrile (Buffer B) via a step gradient. Argon was used as the collision gas and the following species were monitored via MRM detection: malonyl-CoA (853.8>346.9), internal standard (A: [^13C3]-malonyl-CoA, 857>350). The lower limit of detection is 0.3 uM for malonyl-CoA in this assay.
For CC[C@@H](NC(=O)[C@H]1CC[C@H](NS(=O)(=O)c2cnc3ccccc3c2)CC1)c1ccccc1 [Example 56, (1r,4R)-N-((R)-1-phenylpropyl)-4-(quinoline-3-sulfonamido)cyclohexanecarboxamide], the IC50 was 189 nM.
Molecule C[C@@H](NC(=O)[C@H]1CC[C@H](NS(=O)(=O)c2cnc3ccccc3c2)CC1)c1ccc(Cl)cc1 [Example 57, (1r,4R)-N-((R)-1-(4-chlorophenyl)ethyl)-4-(quinoline-3-sulfonamido)cyclohexanecarboxamide] has an IC50 of 112 nM.
Work on C[C@@H](NC(=O)[C@H]1CC[C@H](NS(=O)(=O)c2cnc3ccccc3c2)CC1)c1ccccc1F [Example 58, (1r,4R)-N-((R)-1-(2-fluorophenyl)ethyl)-4-(quinoline-3-sulfonamido)cyclohexanecarboxamide] yielded an IC50 of 185 nM.
With O=C([C@H]1CC[C@H](NS(=O)(=O)c2cnc3ccccc3c2)CC1)N1CCCCC1c1ccccc1 (stereo partly drawn) [Example 59, N-((1r,4r)-4-(2-phenylpiperidine-1-carbonyl)cyclohexyl)quinoline-3-sulfonamide] the IC50 was 339 nM.
CC(C)(C)OC(=O)N1CCN(C(=O)[C@H]2CC[C@H](NS(=O)(=O)c3cnc4ccccc4c3)CC2)C(c2ccccc2)C1 (stereo partly drawn) [Example 60, tert-butyl 3-phenyl-4-((1r,4r)-4-(quinoline-3-sulfonamido)cyclohexanecarbonyl)piperazine-1-carboxylate] gave an IC50 of 131 nM.
Molecule O=C([C@H]1CC[C@H](NS(=O)(=O)c2cnc3ccccc3c2)CC1)N1CCNCC1c1ccccc1 (stereo partly drawn) [Example 61, N-((1r,4r)-4-(2-phenylpiperazine-1-carbonyl)cyclohexyl)quinoline-3-sulfonamide] has an IC50 of 98 nM.
For CC(NC(=O)[C@H]1CC[C@H](NS(=O)(=O)c2cnc3ccccc3c2)CC1)c1cnn(C)c1 (stereo partly drawn) [Example 62, (1r,4r)-N-(1-(1-methyl-1H-pyrazol-4-yl)ethyl)-4-(quinoline-3-sulfonamido)cyclohexanecarboxamide], the IC50 was > 35000 nM.
Cc1c(C(F)(F)F)nc2cccc(S(=O)(=O)N[C@H]3CC[C@H](C(=O)N[C@H](C)c4ccc(F)cc4)CC3)n12 [Example 63, (1r,4R)-N-((R)-1-(4-fluorophenyl)ethyl)-4-(3-methyl-2-(trifluoromethyl)imidazo[1,2-a]pyridine-5-sulfonamido)cyclohexanecarboxamide] was tested, and the IC50 was > 35000 nM.
With C[C@@H](NC(=O)[C@H]1CC[C@H](NS(=O)(=O)c2ccc3nc(OC4COC4)ccc3c2)CC1)c1ccc(F)cc1 [Example 64, (1r,4R)-N-((R)-1-(4-fluorophenyl)ethyl)-4-(2-(oxetan-3-yloxy)quinoline-6-sulfonamido)cyclohexanecarboxamide] the IC50 was 42 nM.
Work on C[C@@H](NC(=O)[C@H]1CC[C@H](NS(=O)(=O)c2cccc3nc(-c4ccccc4)cn23)CC1)c1ccc(F)cc1 [Example 65, (1r,4R)-N-((R)-1-(4-fluorophenyl)ethyl)-4-(2-phenylimidazo[1,2-a]pyridine-5-sulfonamido)cyclohexanecarboxamide] yielded an IC50 of 149 nM.
CC(NC(=O)[C@H]1CC[C@H](NS(=O)(=O)c2cnc3ccccc3c2)CC1)c1ccc(F)c(F)c1 (stereo partly drawn) [Example 66, (1r,4r)-N-(1-(3,4-difluorophenyl)ethyl)-4-(quinoline-3-sulfonamido)cyclohexanecarboxamide] was tested, and the IC50 was 205 nM.
With CC(NC(=O)[C@H]1CC[C@H](NS(=O)(=O)c2cnc3ccccc3c2)CC1)c1ccc(F)cc1F (stereo partly drawn) [Example 67, (1r,4r)-N-(1-(2,4-difluorophenyl)ethyl)-4-(quinoline-3-sulfonamido)cyclohexanecarboxamide] the IC50 was 240 nM.
For COCCOc1ccc2cc(S(=O)(=O)N[C@H]3CC[C@H](C(=O)N[C@H](C)c4ccc(F)cc4)CC3)ccc2n1 [Example 68, (1r,4R)-N-((R)-1-(4-fluorophenyl)ethyl)-4-(2-(2-methoxyethoxy)quinoline-6-sulfonamido)cyclohexanecarboxamide], the IC50 was 70 nM.
In the case of C[C@@H](NC(=O)[C@H]1CC[C@H](NS(=O)(=O)c2ccc3nc(OCCN(C)C)ccc3c2)CC1)c1ccc(F)cc1 [Example 69, (1r,4R)-4-(2-(2-(dimethylamino)ethoxy)quinoline-6-sulfonamido)-N-((R)-1-(4-fluorophenyl)ethyl)cyclohexanecarboxamide], the IC50 is reported as 50 nM.
For Cc1c(-c2ccccc2)nc2ccc(S(=O)(=O)N[C@H]3CC[C@H](C(=O)N[C@H](C)c4ccc(F)cc4)CC3)cn12 [Example 70, (1r,4R)-N-((R)-1-(4-fluorophenyl)ethyl)-4-(3-methyl-2-phenylimidazo[1,2-a]pyridine-6-sulfonamido)cyclohexanecarboxamide], the IC50 was 165 nM.
In the case of C=Cc1ccc2cc(S(=O)(=O)N[C@H]3CC[C@H](C(=O)N[C@H](C)c4ccc(F)cc4)CC3)ccc2n1 [Example 71, (1r,4R)-N-((R)-1-(4-fluorophenyl)ethyl)-4-(2-vinylquinoline-6-sulfonamido)cyclohexanecarboxamide], the IC50 is reported as 405 nM.
Cc1ccc2cc(S(=O)(=O)N[C@H]3CC[C@H](C(=O)N[C@H](C)c4ccc(F)cc4)CC3)ccc2n1 [Example 72, (1r,4R)-N-((R)-1-(4-fluorophenyl)ethyl)-4-(2-methylquinoline-6-sulfonamido)cyclohexanecarboxamide] showed an IC50 of 115 nM.
In the case of CCOC(=O)COc1ccc2cc(S(=O)(=O)N[C@H]3CC[C@H](C(=O)N[C@H](C)c4ccc(F)cc4)CC3)ccc2n1 [Example 73, ethyl 2-(6-(N-((1R,4r)-4-((R)-1-(4-fluorophenyl)ethylcarbamoyl)cyclohexyl)sulfamoyl)quinolin-2-yloxy)acetate], the IC50 is reported as 175 nM.
For CCc1ccc2cc(S(=O)(=O)N[C@H]3CC[C@H](C(=O)N[C@H](C)c4ccc(F)cc4)CC3)ccc2n1 [Example 74, (1r,4R)-4-(2-ethylquinoline-6-sulfonamido)-N-((R)-1-(4-fluorophenyl)ethyl)cyclohexanecarboxamide], the IC50 was 160 nM.
In the case of Cc1ccccc1-c1nc2cc(S(=O)(=O)N[C@H]3CC[C@H](C(=O)N[C@H](C)c4ccc(F)cc4)CC3)cnc2s1 [Example 75, (1r,4R)-N-((R)-1-(4-fluorophenyl)ethyl)-4-(2-o-tolylthiazolo[5,4-b]pyridine-6-sulfonamido)cyclohexanecarboxamide], the IC50 is reported as 95 nM.
Molecule Cc1ccccc1-c1nc2cc(S(=O)(=O)N[C@H]3CC[C@H](C(=O)N[C@H](C)c4ccc(F)cc4)CC3)cnc2o1 [Example 76, (1r,4R)-N-((R)-1-(4-fluorophenyl)ethyl)-4-(2-o-tolyloxazolo[5,4-b]pyridine-6-sulfonamido)cyclohexanecarboxamide] has an IC50 of 590 nM.
CCC1CCc2cc(S(=O)(=O)N[C@H]3CC[C@H](C(=O)N[C@H](C)c4ccc(F)cc4)CC3)ccc2N1 (stereo partly drawn) [Example 77, (1r,4R)-4-(2-ethyl-1,2,3,4-tetrahydroquinoline-6-sulfonamido)-N-((R)-1-(4-fluorophenyl)ethyl)cyclohexanecarboxamide] showed an IC50 of 50 nM.
C[C@@H](NC(=O)[C@H]1CC[C@H](NS(=O)(=O)c2ccc3nc(OCC(=O)O)ccc3c2)CC1)c1ccc(F)cc1 [Example 78, 2-(6-(N-((1R,4r)-4-((R)-1-(4-fluorophenyl)ethylcarbamoyl)cyclohexyl)sulfamoyl)quinolin-2-yloxy)acetic acid] was tested, and the IC50 was 470 nM.
C[C@@H](NC(=O)[C@H]1CC[C@H](NS(=O)(=O)c2ccc3nc(-c4ccccc4)cn3c2)CC1)c1ccc(F)cc1 [Example 79, (1r,4R)-N-((R)-1-(4-fluorophenyl)ethyl)-4-(2-phenylimidazo[1,2-a]pyridine-6-sulfonamido)cyclohexanecarboxamide] was tested, and the IC50 was 115 nM.
With C[C@@H](NC(=O)[C@H]1CC[C@H](NS(=O)(=O)c2ccc3nc(OC(C)(C)CO)ccc3c2)CC1)c1ccc(F)cc1 [Example 80, (1r,4R)-N-((R)-1-(4-fluorophenyl)ethyl)-4-(2-(1-hydroxy-2-methylpropan-2-yloxy)quinoline-6-sulfonamido)cyclohexanecarboxamide] the IC50 was 40 nM.
In the case of C[C@@H](NC(=O)[C@H]1CC[C@H](NS(=O)(=O)c2ccc3nc(OCC(C)(C)O)ccc3c2)CC1)c1ccc(F)cc1 [Example 81, (1r,4R)-N-((R)-1-(4-fluorophenyl)ethyl)-4-(2-(2-hydroxy-2-methylpropoxy)quinoline-6-sulfonamido)cyclohexanecarboxamide], the IC50 is reported as 95 nM.
Molecule CCOc1ccc2cc(S(=O)(=O)N[C@H]3CC[C@H](C(=O)N[C@H](C)c4ccccn4)CC3)ccc2n1 [Example 82, (1r,4R)-4-(2-ethoxyquinoline-6-sulfonamido)-N-((R)-1-(pyridin-2-yl)ethyl)cyclohexanecarboxamide] has an IC50 of 845 nM.
